Measured values from US20150164837A1, “USE OF AMPHOTERIC SURFACTANTS FOR THE PREVENTION AND TREATMENT OF PATHOGENIC VAGINAL BIOFILMS IN VAGINAL INFECTIONS” (DR. AUGUST WOLFF GMBH & CO. KG ARZNEIMITTEL, priority 2012, published 2015).

How the values were obtained:
[1] = test system: Gardnerella vaginalis biofilms; assay: Crystal violet staining of biofilm mass, forming (t0) and well developed, still growing (t20m) biofilms; assay type: cell-based, Gardnerella vaginalis (strain ATCC 14018); settings: for inhibition of biofilm formation / reduction of cell mass (in words): well developed and still growing biofilms (t20m)
Method: (§1) The inhibitory effect of amphoteric surfactants on the formation of Gardnerella vaginalis biofilms were tested in biofilms, grown in 96 well tissue culture test plates. Before starting the biofilm experiments, MIC (minimal inhibitory concentration) values for sodium cocoamphoacetate for planktonic growing Gardnerella vaginalis cultures were determined MIC values for sodium cocoamphoacetate against Gardnerella vaginalis had not been reported so far.
(§2) Gardnerella vaginalis (strain ATCC 14018) were grown on Columbia agar plates supplemented with 5% sheep blood, liquid cultures were grown in brain heart infusion broth supplemented with 2% (w/v) gelatine, 0.5% yeast extract, 0.1% starch and 1% D-(+)-glucose at 37° C. and with the addition of 5% CO2.
(§3) For a preculture, bacteria were inoculated from plate or glycerol stock and grew overnight. This preculture was used for starting a new culture. Here the cultivation was performed in microtiter plates in a final volume of […] For testing substances in a forming biofilm (t0), substances were added at this time point. After 20 hours of cultivation, measurements determining the mass of biofilm cells and the biofilm viability were started.
For testing substances in a well developed and further growing biofilm (t20m), medium was gently removed after 20 hours of cultivation and compounds were added in fresh medium for enabling further growth. Incubation was performed for another 20 hours.
At 20 hours (t0) respectively 40 hours of cultivation (t20m) measurements were started, concerning the biofilm formation and viability.
(§4) Crystal violet (CV) staining was used to determine the mass of biofilm cells. For this purpose biofilms grown in 96 well tissue test plates were washed with buffer (PBS, pH of 7.4), dried and stained under shaking with 2% crystal violet in ethanol. After washing with buffer, drying and over night extraction with ethanol, the absorbance (OD620) was measured in a plate reader and the percentage of biomass inhibition was calculated.

[2] = test system: Gardnerella vaginalis biofilms; assay: Live/Dead BacLight viability staining, forming (t0) and well developed, still growing (t20m) biofilms; assay type: cell-based, Gardnerella vaginalis (strain ATCC 14018); settings: for inhibition of cell viability (in words): well developed and still growing biofilms (t20m)
Method: as §1, §2
as §3, with “started. […]” for “started.”
The viability was determined using the Live/Dead BacLight bacterial viability staining. […] In contrast, propidium iodide penetrates only bacteria with damaged membranes, causing a reduction in the SYTO 9 stain fluorescence when both dyes are present. […] After 15 min of incubation in the dark fluorescence was measured in a microtiter plate reader equipped with detectors and filter sets for monitoring red (630 nm) and green (530 nm) fluorescence. Afterwards the percentage of the reduction of viability was calculated.
The tested substances namely cocoamidopropyl hydroxysultaine, disodium cocamphodiacetate, sodium cocoamphopropionate and sodium lauroamphoacetate were dissolved in fresh media and added to a mature G. vaginalis biofilm (t20m, see Example 1). After another 20 hrs of incubation, the biofilm viability was determined via Live/Dead staining, as described above.

[3] = test system: Gardnerella vaginalis biofilms in the stationary phase; assay: Biomass of biofilms in the stationary phase (compounds added in PBS to 20 hours old biofilms); assay type: cell-based; settings: 1 mg/ml to 50 mg/ml
Method: as §4, with “calculated. To determine how different concentrations of sodium cocoamphoacetate damage well formed biofilms in the stationary phase, compounds were added in PBS buffer to 20 hours old biofilms and analyzed after further 20 hours of incubation by determining their biomass and viability.” for “calculated.”

[4] = test system: vaginal biofilm (Gardnerella vaginalis, Atopobium vaginae); settings: cited from earlier work

sodium cocoamphoacetate
inhibition of biofilm formation ([1]; added at the beginning of biofilm cultivation (t0), concentrations of 0.25 mg/ml and higher): completely inhibited | decrease of viability of the bacterial cells ([2]; added at the beginning of biofilm cultivation (t0), 0.25 mg/ml to 1 mg/ml): 90% | reduction in biofilm formation [3]: 44-65%

Cc1ncc([N+](=O)[O-])n1CCO [metronidazole]
effect on the vaginal biofilm ([4]; 500 mg orally twice daily for 7 days, 18 women): did not erase the Gardnerella vaginalis biofilm completely | Nugent Score after treatment ([4]; after 7 day treatment with oral metronidazole): below 7

sodium lauroamphoacetate
inhibition of biofilm formation / reduction of cell mass (in words) [1]: reduce the cell mass | inhibition of cell viability (in words) [2]: inhibit the viability

disodium cocamphodiacetate
inhibition of biofilm formation / reduction of cell mass (in words) [1]: reduce the cell mass | inhibition of cell viability (in words) [2]: inhibit the viability
